Source: patent publication US20060276407A1, “Methods of treating hepatitis C virus” (Schering Corporation, priority 2005, published 2006)
Where two headings read alike, the source gives them in different places.

Assay: Phase 1 rising-single-dose pharmacokinetic study in healthy adult subjects (Example 1)
Type: in vivo, human
Conditions: for half-life / AUC / Tmax / Cmax / Vd/F: human; for AUC: po; for DN AUC(l) / DN AUC(tf) / DN Cmax: dose-normalized (to 50 mg)
Experimental: A Phase 1, randomized, third-party-blind (within dose level), placebo-controlled, rising-single-dose study of compounds of Formulae I-XXVI was conducted in healthy adult subjects.
Nine subjects in each group received either compound of Formula Ia (n=6) or placebo (n=3). Those subjects randomized to active compound received one of the following doses of compound of Formula Ia: 50, 100, 200, 400, 600, or 800 mg.
On Day 1, at least 10 hours prior to compound administration, an overnight fast was maintained until 4 hours following treatment administration, after which lunch was served. During the fasting period, no food or fluid (except noncarbonated water) was permitted; furthermore, drinking water was prohibited from 2 hours predose to 2 hours postdose, with the exception of the approximately 240 mL administered with the treatments.
Blood samples (7 mL each) for the determination of compound of Formula Ia concentrations were collected immediately prior to dosing (0 hour), and at 0.25, 0.5, 0.75, 1, 1.5, 2, 3, 4, 5, 6, 8, 10, 12, 18, 24, 36, 48, 72, and 144 hours postdose. The blood samples were collected into tubes containing EDTA. The samples were separated by centrifugation at 4° C. for 15 minutes at 1500 g to obtain the plasma, and the plasma samples frozen at −20° C. until assayed.
Plasma concentrations of compound of Formula Ia were determined using a validated liquid chromatography tandem mass spectrometry (LC-MS/MS) method. The assay lower limit of quantitation (LLOQ) was 0.50 ng/mL, and the method was validated over the concentration range of 0.50 to 1000 ng/mL.
The mean and percent coefficients of variation (% CV) were calculated for the plasma concentrations of compound of Formula Ia at each time point. Concentration values less than the assay LLOQ were reported as and set to zero in the calculations and tables. The plasma concentration-time data for compound of Formula Ia were subjected to pharmacokinetic analysis by noncompartmental methods using WinNonlin software. Nominal sampling times were used for pharmacokinetic analysis.
For each subject, the following compound of Formula Ia pharmacokinetic parameters were determined: • Cmax Maximum observed plasma concentration • Tmax Time of maximum observed plasma concentration • tf Time of final quantifiable sample • AUC(tf) Area under the plasma concentration-time curve from time 0 to tf • AUC(l) Area under the plasma concentration-time curve from time 0 to infinity [AUC(l)=[…]+C(tf)estimated/k, where k and C(tf)estimated are terminal elimination rate constant and estimated concentration at final quantifiable sample, respectively] • t½ Terminal-phase half-life (t½=ln 2/k) • CL/F Apparent total body clearance (CL/F=Dose/AUC[l]) • Vd/F Apparent volume of distribution (Vd/F=CL/F*(t1/2/0.693))
Dose-adjusted (to 50 mg) Cmax, AUC(l), and AUC(tf) values were also calculated. Cmax, Tmax, and if were the observed values. The terminal phase rate constant (k) was calculated as the negative of the slope of the log-linear terminal portion of the plasma concentration-time curve using linear regression (at least three time points). The number of points needed to determine the terminal phase rate constant was selected by WinNonlin software.
Summary statistics, including means, standard deviations, and coefficients of variation (CV) expressed as a percent, were computed for the single-dose plasma compound of Formula Ia concentration data at each sampling time point and for the derived pharmacokinetic parameters for each dose level using a standard program based on SAS/STAT (Release 6.12; SAS Institute Inc., North Carolina).
The log-transformed dose-adjusted (to 50 mg) Cmax and AUC values of compound of Formula Ia were statistically analyzed using an analysis of variance (ANOVA) model. The effect due to treatment (dose) was extracted. Ninety-five percent confidence intervals (CIs) for the means at each dose level, based on the nontransformed data, were provided. […]

[1] = plasma, single oral dose 50 mg, mean, n = 6
[2] = plasma, single oral dose 100 mg, mean, n = 6
[3] = plasma, single oral dose 200 mg, mean, n = 6
[4] = plasma, single oral dose 400 mg, mean, n = 6
[5] = plasma, single oral dose 600 mg, mean, n = 6
[6] = plasma, single oral dose 800 mg, mean, n = 6
[7] = single oral dose 50 mg, mean, n = 6
[8] = single oral dose 100 mg, mean, n = 6
[9] = single oral dose 200 mg, mean, n = 6
[10] = single oral dose 400 mg, mean, n = 6
[11] = single oral dose 600 mg, mean, n = 6
[12] = single oral dose 800 mg, mean, n = 6

`CC(C)(C)NC(=O)N[C@H](C(=O)N1C[C@H]2[C@@H]([C@H]1C(=O)NC(CC1CCC1)C(=O)C(N)=O)C2(C)C)C(C)(C)C` (mixture of isomers) [Formula Ia, (1 R, 5S)-N-[3-Amino-1-(Cyclobutylmethyl)-2,3-Dioxopropyl]-3-[2(S)-[[[(1,1-Dimethylethyl)Amino]Carbonyl]Amino]-3,3-Dimethyl-1-Oxobutyl]-6,6-Dimethyl-3-Azabicyclo[3.1.0]Hexan-2(S)-Carboxamide] showed a half-life (plasma, oral, 100-800 mg dose cohorts, read-out: mean terminal phase half-life (t½)) of 7 to 15 h, an AUC (plasma, 50 mg, single oral dose 50 mg, mean, n = 6, read-out: AUC(l)) of 0.181 µg·h/mL and an AUC (plasma, 50 mg, single oral dose 50 mg, mean, n = 6, read-out: AUC(tf)) of 0.179 µg·h/mL. For the same compound, the AUC (plasma, 100 mg, single oral dose 100 mg, mean, n = 6, read-out: AUC(l)) was 0.345 µg·h/mL, the AUC (plasma, 100 mg, single oral dose 100 mg, mean, n = 6, read-out: AUC(tf)) was 0.337 µg·h/mL and the AUC (plasma, 200 mg, single oral dose 200 mg, mean, n = 6, read-out: AUC(l)) was 0.846 µg·h/mL. For the same compound, the AUC (plasma, 200 mg, single oral dose 200 mg, mean, n = 6, read-out: AUC(tf)) was 0.831 µg·h/mL, the AUC (plasma, 400 mg, single oral dose 400 mg, mean, n = 6, read-out: AUC(l)) was 1.56 µg·h/mL and the AUC (plasma, 400 mg, single oral dose 400 mg, mean, n = 6, read-out: AUC(tf)) was 1.53 µg·h/mL. It also gave an AUC (plasma, 600 mg, single oral dose 600 mg, mean, n = 6, read-out: AUC(l)) of 2.16 µg·h/mL, an AUC (plasma, 600 mg, single oral dose 600 mg, mean, n = 6, read-out: AUC(tf)) of 2.14 µg·h/mL and an AUC (plasma, 800 mg, single oral dose 800 mg, mean, n = 6, read-out: AUC(l)) of 2.32 µg·h/mL. It also gave an AUC (plasma, 800 mg, single oral dose 800 mg, mean, n = 6, read-out: AUC(tf)) of 2.3 µg·h/mL, a Tmax (plasma, across single oral doses 50-800 mg, read-out: median Tmax) of 1 to 2.25 h and a Cmax [1] of 0.0587 µg/mL. The Vd/F [1] was 1070 L, the Tmax (plasma, single oral dose 50 mg, median, n = 6, read-out: Tmax) was 1.5 h and the Cmax [2] was 0.111 µg/mL. For the same compound, the Vd/F [2] was 2680 L, the half-life (plasma, single oral dose 100 mg, mean, n = 6, read-out: t½ (converted)) was 6.84 h and the Tmax (plasma, single oral dose 100 mg, median, n = 6, read-out: Tmax) was 2 h. The Cmax [3] was 0.281 µg/mL, the Vd/F [3] was 3840 L and the half-life (plasma, single oral dose 200 mg, mean, n = 6, read-out: t½ (converted)) was 10.8 h. The Tmax (plasma, single oral dose 200 mg, median, n = 6, read-out: Tmax) was 1 h, the Cmax [4] was 0.445 µg/mL and the Vd/F [4] was 5400 L. For the same compound, the half-life (plasma, single oral dose 400 mg, mean, n = 6, read-out: t½ (converted)) was 15.4 h, the Tmax (plasma, single oral dose 400 mg, median, n = 6, read-out: Tmax) was 1.75 h and the Cmax [5] was 0.528 µg/mL. It also gave a Vd/F [5] of 4110 L, a half-life (plasma, single oral dose 600 mg, mean, n = 6, read-out: t½ (converted)) of 10.2 h and a Tmax (plasma, single oral dose 600 mg, median, n = 6, read-out: Tmax) of 2.25 h. It also gave a Cmax [6] of 0.616 µg/mL, a Vd/F [6] of 5450 L and a half-life (plasma, single oral dose 800 mg, mean, n = 6, read-out: t½ (converted)) of 10.1 h. For the same compound, the Tmax (plasma, single oral dose 800 mg, median, n = 6, read-out: Tmax) was 1.25 h, the half-life (single oral dose 50 mg, mean, n = 6, value could not be well characterized because of low plasma concentrations in the terminal phase, read-out: t½ (converted)) was 2.69 h and the “DN AUC(l)” value (single oral dose 50 mg, mean) was 0.181 µg·h/mL. For the same compound, the “DN AUC(tf)” value (single oral dose 50 mg, mean) was 0.179 µg·h/mL, the “DN Cmax” value (single oral dose 50 mg, mean) was 0.0587 µg/mL and the CL/F [7] was 277 L/h. For the same compound, the “tf (time of final quantifiable sample)” value [7] was 15.3 h, the “DN AUC(l)” value (single oral dose 100 mg, mean) was 0.172 µg·h/mL and the “DN AUC(tf)” value (single oral dose 100 mg, mean) was 0.169 µg·h/mL. The “DN Cmax” value (single oral dose 100 mg, mean) was 0.0554 µg/mL, the CL/F [8] was 315 L/h and the “tf (time of final quantifiable sample)” value [8] was 26 h. The “DN AUC(l)” value (single oral dose 200 mg, mean) was 0.212 µg·h/mL, the “DN AUC(tf)” value (single oral dose 200 mg, mean) was 0.208 µg·h/mL and the “DN Cmax” value (single oral dose 200 mg, mean) was 0.0703 µg/mL. The CL/F [9] was 254 L/h, the “tf (time of final quantifiable sample)” value [9] was 40.0 h and the “DN AUC(l)” value (single oral dose 400 mg, mean) was 0.195 µg·h/mL. The “DN AUC(tf)” value (single oral dose 400 mg, mean) was 0.191 µg·h/mL, the “DN Cmax” value (single oral dose 400 mg, mean) was 0.0557 µg/mL and the CL/F [10] was 279 L/h. The “tf (time of final quantifiable sample)” value [10] was 52.0 h, the “DN AUC(l)” value (single oral dose 600 mg, mean) was 0.18 µg·h/mL and the “DN AUC(tf)” value (single oral dose 600 mg, mean) was 0.178 µg·h/mL. For the same compound, the “DN Cmax” value (single oral dose 600 mg, mean) was 0.044 µg/mL, the CL/F [11] was 288 L/h and the “tf (time of final quantifiable sample)” value [11] was 52 h. The “DN AUC(l)” value (single oral dose 800 mg, mean) was 0.145 µg·h/mL, the “DN AUC(tf)” value (single oral dose 800 mg, mean) was 0.144 µg·h/mL and the “DN Cmax” value (single oral dose 800 mg, mean) was 0.0385 µg/mL. For the same compound, the CL/F [12] was 399 L/h and the “tf (time of final quantifiable sample)” value [12] was 56 h.
